The source of these data is US12133486B2, “Methods of propagation of arbuscular mycorrhizal fungi (AMF) and uses thereof” (Terra Microbes, LLC, priority 2021, dated 2024).

Experiment [1] relates to AM fungi infection of yellow sweet clover (Melilotus officinalis) roots. The experiment can be described thus: Pot study: AM infection level of yellow sweet clover roots. Format: in vivo. The note with it: YBSC plants; 80 ppm treatment P; 66 days; infected 1.1 mm root segments per 80 examined. An excerpt:
(§1) This Example is an un-replicated study to examine whether PO3^−3 (phosphite) impacts spore production and infection rate of AM fungi. The fungi were a mixed inoculum source from the University of West Virginia (UWV). UWV holds and maintains the International Culture Collection of (Vesicular) Arbuscular Mycorrhizal Fungi (INVAM). The plant used was yellow blossom sweet clover (Melilotus officinalis). All pots were inoculated, but only half were planted. Each Experimental unit was a 20 cm pot. Substrate for the units were a soil, sand, and inoculum mixture.
(§2) The present example was designed as a pot experiment where each pot was a treatment, the treatments being untreated controls, units treated with phosphate, and units treated with phosphite. All pots were a mixture of steamed ML soil, sand, and inoculum. Control units (pots) received no other treatment. Phosphate pots were treated with K2HPO4. Phosphite pots were treated with an equivalent molarity (concentration) of P as K2HPO3.
(§3) Half of the pots (a control, phosphate, and phosphite treatments) were planted with yellow sweet clover seed. The other half of the pots (also a control, phosphate, and phosphite treatment) were not planted with any plants.
Phosphate and phosphite were added to the soil materials such that the phosphorus in each would constitute 80 mg per kg of soil (Table 6). […]

Experiment [2] relates to AM fungi (mixed INVAM inoculum). Kind of experiment: Pot study: AM fungal spore production in steamed ML soil/sand with INVAM inoculum, planted or unplanted. Format: in vivo. The note with it: for AM Fungal Spores per 100 g soil: 80 ppm treatment P, end of study at 66 days, start 408 spores per 100 g; for increase in spore population from the start of the study: planted with yellow sweet clover; for increase in spore population from the start of the study / increase in spore population at 66 days over the levels at time 0: 66 days vs 408 spores per 100 g at time 0.
Description: as §1
A known AM fungal inoculum was obtained from The International Culture Collection of (Vesicular) Arbuscular Mycorrhizae (invam.wvu.edu, Director Matt Kasson) maintained at the University of West Virginia in Morgantown, WV, US. A mixed culture of four AM fungal species was ordered. The mixture contained 250 ml of soil inoculum of each species. The total weight the entire mixed sample was 1345 grams and thus a bulk density of the sample of 1.345 g/ml. The material received contained the following species: Claroideoglomus etunicatum., Accession number AZ 201C (initially described by Becker W. N. and Gerdemann J. W., Mycotaxon, 6:29, 1977, as Glomus etunicatum.), spores were orange to red-brown, globose, subglobose; 60-160 μm diameter; mean 129 μm (n=120); Rhizophagus clarus, Accession number AZ 151D (initially described by Schenck, N. Mycologia, 71:182, 1979, as Glomus clarum.), spores are from white to yellow brown with many pale yellow to pale yellow brown, 100 to 260 μm diameter, mean 182 μm (n=120); Rhizophagus intraradices, Accession number AZ 123 (initially described by Schenck, N. Mycologia, 74:78, 1982, as Glomus intraradices), spores were white, pale cream, to yellow, brown, sometimes with a green hint, globose, subglobose, irregular. 40 to 140 μm diameter, mean 93.3 (n=170); and Septoglomus deserticola, Accession number CA 113 (initially described by Trappe J. Bluss and Menge J., 1984, Mycotaxon, 20:123, 1984, as Glomus deserticola), spores are orange-brown to dark red brown, most are reddish brown, globose to subglobose, sometimes irregular, 60 to 140 μm diameter.
as §2, §3
Phosphate and phosphite were added to the soil materials such that the phosphorus in each would constitute 80 mg per kg of soil (Table 6). This is more than was added to the field experimental plots described in Example 3. However, the results of that experiment (Example 4) did show a response of the AM fungi to phosphite. In Example 4, phosphorous either as phosphate or phosphite, was added at 61.53 ppm. In Example 4, there was no apparent inhibition of infection or spore production by addition of phosphorus. The level of P was raised to 80 mg per kg in this example to accentuate the impact of added P on the AM fungi. Each pot described in Table 6 contained 3.022.5 g of soil material (soil plus sand and inoculum).
The various treatment substrates, i.e., soil, sand, and inoculum, were mixed in batches. The control batch was established and mixed for the control treatments. Likewise, the phosphate and phosphite batches were mixed, respectively, for all phosphate and phosphite treatments. The treatments salts (K2HPO4 and K2HPO3) were added as 400 ml aqueous solution (chemical in distilled water to 400 ml). […]

The mark [3] stands for this setting: YBSC (yellow sweet clover) plants.

In the case of `OP(O)O` [PO3, dipotassium phosphite], the “AM Infection level, %” value in experiment [1] was found to be 35%. The “AM Fungal Spores per 100 g soil” value in experiment [2] (setting [3]) was 4,598 per 100 g soil; in experiment [2] (no plants) it was 7,301 per 100 g soil. For the same molecule, the “increase in spore population from the start of the study” value in experiment [2] is on record as 1,127%. The “mature brownish reddish spores” value in experiment [2] (planted, 66 days) is listed as 3,480 per 100 g soil; in experiment [2] (unplanted, 66 days) it was 4,287 per 100 g soil. In addition, the “small, immature spores” value is 217 per 100 g soil in experiment [2] (planted, 66 days) and 1,585 per 100 g soil in experiment [2] (unplanted, 66 days). Also, in experiment [2] (unplanted, 66 days), the “light colored to white spores” value was 1,429 spores per 100 g soil. The “increase in spore population at 66 days over the levels at time 0” value in experiment [2] (unplanted) is recorded as 1,789%.
For the molecule `O=P([O-])([O-])O.[K+].[K+]` [PO4, dipotassium phosphate], the “AM Infection level, %” value in experiment [1] came to 47.5%. In addition, the “AM Fungal Spores per 100 g soil” value in experiment [2] (setting [3]) was 7,146 per 100 g soil; in experiment [2] (no plants), 5,220 per 100 g soil. The “increase in spore population from the start of the study” value in experiment [2] is reported as 1,751%. Moreover, the “mature brownish reddish spores” value in experiment [2] (planted, 66 days) is listed as 2,827 per 100 g soil; in experiment [2] (unplanted, 66 days), 2,237 per 100 g soil. Also, the “small, immature spores” value is recorded as 3,604 per 100 g soil in experiment [2] (planted, 66 days) and 2,548 per 100 g soil in experiment [2] (unplanted, 66 days). For the same molecule, the “increase in spore population at 66 days over the levels at time 0” value in experiment [2] (unplanted) is on record as 1,279%.
